Assay [1] concerns the target T1, Tyrosine-protein kinase JAK3 (Homo sapiens, UniProt P52333).
T1 sequence (P52333 whole entry): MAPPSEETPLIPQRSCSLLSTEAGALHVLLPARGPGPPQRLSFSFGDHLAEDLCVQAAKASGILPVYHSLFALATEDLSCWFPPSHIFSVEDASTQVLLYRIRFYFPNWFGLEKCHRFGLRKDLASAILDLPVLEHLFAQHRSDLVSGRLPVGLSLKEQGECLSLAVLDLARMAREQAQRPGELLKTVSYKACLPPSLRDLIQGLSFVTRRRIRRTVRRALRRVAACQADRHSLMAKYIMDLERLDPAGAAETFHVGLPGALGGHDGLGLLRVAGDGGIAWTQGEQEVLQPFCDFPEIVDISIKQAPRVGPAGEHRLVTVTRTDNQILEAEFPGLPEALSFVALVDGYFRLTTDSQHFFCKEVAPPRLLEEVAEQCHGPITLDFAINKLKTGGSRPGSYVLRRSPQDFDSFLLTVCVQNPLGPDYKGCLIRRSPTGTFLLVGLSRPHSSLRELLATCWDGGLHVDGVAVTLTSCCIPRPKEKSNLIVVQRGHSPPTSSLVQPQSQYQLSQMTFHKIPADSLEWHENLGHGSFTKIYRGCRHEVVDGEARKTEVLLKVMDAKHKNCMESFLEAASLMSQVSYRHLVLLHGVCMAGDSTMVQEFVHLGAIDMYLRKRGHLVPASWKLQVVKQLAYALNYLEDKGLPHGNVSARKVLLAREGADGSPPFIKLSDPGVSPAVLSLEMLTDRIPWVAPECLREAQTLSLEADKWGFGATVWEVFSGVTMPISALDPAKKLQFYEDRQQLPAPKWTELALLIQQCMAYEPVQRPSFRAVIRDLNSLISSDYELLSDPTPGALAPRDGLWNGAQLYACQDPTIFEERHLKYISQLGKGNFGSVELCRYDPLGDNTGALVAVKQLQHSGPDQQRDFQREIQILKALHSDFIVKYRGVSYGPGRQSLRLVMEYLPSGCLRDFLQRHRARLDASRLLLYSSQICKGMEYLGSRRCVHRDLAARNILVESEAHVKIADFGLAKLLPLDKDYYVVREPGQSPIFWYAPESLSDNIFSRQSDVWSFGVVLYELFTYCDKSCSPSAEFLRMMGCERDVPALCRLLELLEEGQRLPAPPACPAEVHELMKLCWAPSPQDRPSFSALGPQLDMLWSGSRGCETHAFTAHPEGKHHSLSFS
Description: Inhibition of JAK3 (unknown origin) in presence of ATP by radiometric assay

In assay [2] the target is Tyrosine-protein kinase BTK (Homo sapiens, UniProt Q06187). Kind of assay: Inhibition of BTK (unknown origin) by trFRET binding assay.
For assay [3], the target named is T1, Tyrosine-protein kinase JAK3. Kind of assay: Inhibition of JAK3 (unknown origin) by trFRET binding assay.
The target in assay [4] is Vascular endothelial growth factor receptor 1 (Homo sapiens, UniProt P17948). Kind of assay: Inhibition of FLT1 (unknown origin) by trFRET binding assay.
In assay [5] the target is Tyrosine-protein kinase Fyn (Homo sapiens, UniProt P06241). The experiment in a line: Inhibition of FYN (unknown origin) by trFRET binding assay.
The target of assay [6] is Vascular endothelial growth factor receptor 2 (Homo sapiens, UniProt P35968). The experiment in a line: Inhibition of KDR (unknown origin) by trFRET binding assay.
The target in assay [7] is Proto-oncogene tyrosine-protein kinase Src (Homo sapiens, UniProt P12931). Kind of assay: Inhibition of SRC (unknown origin) by trFRET binding assay.
In assay [8] the target is Serine/threonine-protein kinase 16 (Homo sapiens, UniProt O75716). Kind of assay: Inhibition of STK16 (unknown origin) by trFRET binding assay.
Assay [9] deals with Cytoplasmic tyrosine-protein kinase BMX (Homo sapiens, UniProt P51813). The experiment in a line: Inhibition of BMX (unknown origin).
Assay [10] deals with Epidermal growth factor receptor (Homo sapiens, UniProt P00533). Kind of assay: Inhibition of EGFR (unknown origin).
Assay [11] concerns the target Receptor tyrosine-protein kinase erbB-2 (Homo sapiens, UniProt P04626). The experiment in a line: Inhibition of ERB-B2 (unknown origin).
Assay [12] deals with Tyrosine-protein kinase Tec (Homo sapiens, UniProt P42680). The experiment in a line: Inhibition of TEC (unknown origin).
Assay [13] addresses Tyrosine-protein kinase TXK (Homo sapiens, UniProt P42681). The experiment in a line: Inhibition of TXK (unknown origin).
Assay [14] deals with Fibroblast growth factor receptor 1 (Homo sapiens, UniProt P11362). The experiment in a line: Inhibition of FGFR1 (unknown origin) by trFRET binding assay.
Assay [15] addresses G protein-coupled receptor kinase 5 (Homo sapiens, UniProt P34947). Kind of assay: Inhibition of GRK5 (unknown origin) by trFRET binding assay.
Assay [16] concerns the target Leukocyte tyrosine kinase receptor (Homo sapiens, UniProt P29376). Kind of assay: Inhibition of LTK (unknown origin) by trFRET binding assay.
Assay [17] deals with Mitogen-activated protein kinase kinase kinase kinase 2 (Homo sapiens, UniProt Q12851). The experiment in a line: Inhibition of MAP4K2 (unknown origin) by trFRET binding assay.
The target of assay [18] is Proto-oncogene tyrosine-protein kinase receptor Ret (Homo sapiens, UniProt P07949). Kind of assay: Inhibition of RET (unknown origin) by trFRET binding assay.
In assay [19] the target is Serine/threonine-protein kinase 33 (Homo sapiens, UniProt Q9BYT3). The experiment in a line: Inhibition of STK33 (unknown origin) by trFRET binding assay.

As usually defined, the IC50 is the point on the concentration scale where inhibition reaches its midpoint. Read a high IC50 as weaker potency in that assay.

Chain of Tyrosine-protein kinase BTK (Q06187 whole entry): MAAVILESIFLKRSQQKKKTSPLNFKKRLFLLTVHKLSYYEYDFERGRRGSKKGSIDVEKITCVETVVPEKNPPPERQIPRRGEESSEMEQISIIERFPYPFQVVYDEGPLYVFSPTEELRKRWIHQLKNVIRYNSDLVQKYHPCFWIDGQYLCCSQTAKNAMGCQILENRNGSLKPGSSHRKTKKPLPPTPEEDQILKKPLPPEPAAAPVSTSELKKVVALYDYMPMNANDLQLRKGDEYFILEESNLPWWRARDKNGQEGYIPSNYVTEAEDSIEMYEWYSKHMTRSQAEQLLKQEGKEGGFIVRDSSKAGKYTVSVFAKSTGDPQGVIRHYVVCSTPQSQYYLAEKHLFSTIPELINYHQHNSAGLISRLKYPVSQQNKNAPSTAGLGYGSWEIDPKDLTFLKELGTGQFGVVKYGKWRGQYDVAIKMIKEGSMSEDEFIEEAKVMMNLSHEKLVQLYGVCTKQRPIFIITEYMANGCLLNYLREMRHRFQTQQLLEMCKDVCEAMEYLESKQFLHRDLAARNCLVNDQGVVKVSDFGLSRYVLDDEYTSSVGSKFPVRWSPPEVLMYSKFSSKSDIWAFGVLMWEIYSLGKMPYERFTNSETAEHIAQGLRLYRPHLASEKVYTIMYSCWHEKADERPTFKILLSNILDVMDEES
Chain of Vascular endothelial growth factor receptor 1 (P17948 whole entry): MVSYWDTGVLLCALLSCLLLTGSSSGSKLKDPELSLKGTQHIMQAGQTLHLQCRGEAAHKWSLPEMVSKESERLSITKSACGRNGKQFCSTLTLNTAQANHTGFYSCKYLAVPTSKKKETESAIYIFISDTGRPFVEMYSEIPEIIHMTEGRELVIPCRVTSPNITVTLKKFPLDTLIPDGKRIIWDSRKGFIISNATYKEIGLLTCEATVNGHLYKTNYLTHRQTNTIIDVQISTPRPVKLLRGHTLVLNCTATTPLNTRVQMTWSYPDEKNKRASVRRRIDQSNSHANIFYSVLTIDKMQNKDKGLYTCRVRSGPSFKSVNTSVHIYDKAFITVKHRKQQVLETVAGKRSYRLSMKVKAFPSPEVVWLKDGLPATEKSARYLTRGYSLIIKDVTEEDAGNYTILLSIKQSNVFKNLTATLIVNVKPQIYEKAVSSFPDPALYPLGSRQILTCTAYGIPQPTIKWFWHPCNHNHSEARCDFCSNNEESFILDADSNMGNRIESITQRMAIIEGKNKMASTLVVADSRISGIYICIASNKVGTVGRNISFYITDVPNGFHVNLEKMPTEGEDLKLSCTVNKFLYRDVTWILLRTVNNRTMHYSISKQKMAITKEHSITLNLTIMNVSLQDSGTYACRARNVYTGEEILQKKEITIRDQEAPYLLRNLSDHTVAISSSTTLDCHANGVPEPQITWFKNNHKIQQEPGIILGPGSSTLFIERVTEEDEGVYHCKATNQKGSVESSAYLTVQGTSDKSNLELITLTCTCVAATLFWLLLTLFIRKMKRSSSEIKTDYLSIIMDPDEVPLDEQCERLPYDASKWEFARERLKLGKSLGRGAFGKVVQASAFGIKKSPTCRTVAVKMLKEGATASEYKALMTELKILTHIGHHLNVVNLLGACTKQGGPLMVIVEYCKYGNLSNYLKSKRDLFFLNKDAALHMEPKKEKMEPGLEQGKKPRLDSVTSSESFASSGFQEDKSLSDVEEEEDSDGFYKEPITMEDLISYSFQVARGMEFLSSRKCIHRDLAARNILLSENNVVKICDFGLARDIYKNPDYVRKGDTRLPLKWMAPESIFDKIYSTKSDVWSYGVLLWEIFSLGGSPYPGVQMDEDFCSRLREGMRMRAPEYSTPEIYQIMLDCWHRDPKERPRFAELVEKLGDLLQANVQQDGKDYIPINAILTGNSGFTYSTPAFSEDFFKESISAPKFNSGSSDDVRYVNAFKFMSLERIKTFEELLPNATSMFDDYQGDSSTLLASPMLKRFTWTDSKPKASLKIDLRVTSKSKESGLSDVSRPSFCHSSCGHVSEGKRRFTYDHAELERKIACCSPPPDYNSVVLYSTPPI
Chain of G protein-coupled receptor kinase 5 (P34947 whole entry): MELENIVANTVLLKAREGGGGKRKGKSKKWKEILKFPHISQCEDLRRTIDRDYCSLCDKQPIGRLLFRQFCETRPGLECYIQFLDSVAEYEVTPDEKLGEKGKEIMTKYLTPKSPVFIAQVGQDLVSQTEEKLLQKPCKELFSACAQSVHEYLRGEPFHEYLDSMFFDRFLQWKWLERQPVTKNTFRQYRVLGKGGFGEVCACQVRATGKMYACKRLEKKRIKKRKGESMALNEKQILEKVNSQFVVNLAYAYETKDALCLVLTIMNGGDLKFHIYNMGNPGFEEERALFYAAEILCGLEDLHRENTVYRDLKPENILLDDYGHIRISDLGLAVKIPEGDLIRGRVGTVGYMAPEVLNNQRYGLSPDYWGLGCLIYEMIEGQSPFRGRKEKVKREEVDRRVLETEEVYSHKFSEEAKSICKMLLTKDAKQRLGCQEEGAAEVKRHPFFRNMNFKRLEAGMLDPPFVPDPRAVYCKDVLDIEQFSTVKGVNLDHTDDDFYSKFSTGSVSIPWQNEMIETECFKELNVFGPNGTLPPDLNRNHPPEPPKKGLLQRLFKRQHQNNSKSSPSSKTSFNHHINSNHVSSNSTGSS
Chain of Tyrosine-protein kinase TXK (P42681 whole entry): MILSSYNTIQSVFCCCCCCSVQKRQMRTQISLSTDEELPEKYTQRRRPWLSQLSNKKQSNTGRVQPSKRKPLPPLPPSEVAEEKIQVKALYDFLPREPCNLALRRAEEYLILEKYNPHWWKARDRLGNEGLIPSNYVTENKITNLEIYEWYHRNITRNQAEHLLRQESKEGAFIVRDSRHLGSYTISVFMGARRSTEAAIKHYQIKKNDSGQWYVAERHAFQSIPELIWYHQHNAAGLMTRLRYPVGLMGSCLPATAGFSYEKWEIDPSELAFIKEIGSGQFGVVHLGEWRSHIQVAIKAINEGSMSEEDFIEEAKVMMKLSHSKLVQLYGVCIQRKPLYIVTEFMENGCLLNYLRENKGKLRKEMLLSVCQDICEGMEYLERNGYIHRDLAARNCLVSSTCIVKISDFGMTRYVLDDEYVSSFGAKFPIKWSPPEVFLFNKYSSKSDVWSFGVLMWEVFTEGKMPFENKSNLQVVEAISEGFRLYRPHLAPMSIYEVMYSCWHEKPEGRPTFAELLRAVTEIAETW
Chain of Fibroblast growth factor receptor 1 (P11362 whole entry): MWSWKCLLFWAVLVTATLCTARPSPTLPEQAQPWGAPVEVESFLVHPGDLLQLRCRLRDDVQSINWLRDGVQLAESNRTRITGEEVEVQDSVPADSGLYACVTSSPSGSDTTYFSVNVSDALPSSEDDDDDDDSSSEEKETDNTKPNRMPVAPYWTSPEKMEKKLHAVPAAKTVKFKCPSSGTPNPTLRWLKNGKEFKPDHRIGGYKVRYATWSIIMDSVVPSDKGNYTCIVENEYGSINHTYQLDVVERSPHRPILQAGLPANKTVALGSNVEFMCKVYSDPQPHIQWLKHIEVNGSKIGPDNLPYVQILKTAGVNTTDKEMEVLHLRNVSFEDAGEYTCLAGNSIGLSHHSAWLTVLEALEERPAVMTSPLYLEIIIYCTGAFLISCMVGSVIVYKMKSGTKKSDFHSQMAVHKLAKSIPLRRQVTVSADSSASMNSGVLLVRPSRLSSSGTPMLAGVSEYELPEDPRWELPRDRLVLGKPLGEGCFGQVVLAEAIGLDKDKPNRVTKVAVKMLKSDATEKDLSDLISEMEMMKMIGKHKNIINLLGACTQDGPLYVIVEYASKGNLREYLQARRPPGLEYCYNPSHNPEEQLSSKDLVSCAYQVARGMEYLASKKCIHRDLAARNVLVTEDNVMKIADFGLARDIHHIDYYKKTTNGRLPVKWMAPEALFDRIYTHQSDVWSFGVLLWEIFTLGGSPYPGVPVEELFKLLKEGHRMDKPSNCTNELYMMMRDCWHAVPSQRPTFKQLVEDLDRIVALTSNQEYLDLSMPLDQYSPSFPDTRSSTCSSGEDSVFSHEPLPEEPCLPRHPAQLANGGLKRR
Chain of Serine/threonine-protein kinase 33 (Q9BYT3 whole entry): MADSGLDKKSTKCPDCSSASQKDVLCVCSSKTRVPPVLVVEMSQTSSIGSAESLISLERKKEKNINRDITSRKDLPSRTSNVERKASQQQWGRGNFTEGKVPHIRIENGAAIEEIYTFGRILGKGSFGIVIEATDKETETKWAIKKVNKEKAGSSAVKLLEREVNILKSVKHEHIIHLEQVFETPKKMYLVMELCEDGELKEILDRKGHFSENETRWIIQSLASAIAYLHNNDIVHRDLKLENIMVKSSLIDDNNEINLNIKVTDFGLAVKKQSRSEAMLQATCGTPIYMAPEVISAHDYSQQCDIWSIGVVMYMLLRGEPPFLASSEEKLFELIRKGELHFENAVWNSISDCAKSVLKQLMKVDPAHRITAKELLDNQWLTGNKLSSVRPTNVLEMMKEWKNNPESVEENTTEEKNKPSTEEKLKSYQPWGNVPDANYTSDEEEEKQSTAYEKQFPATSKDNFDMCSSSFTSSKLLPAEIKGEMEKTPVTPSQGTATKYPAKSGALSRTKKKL
Chain of Serine/threonine-protein kinase 16 (O75716 whole entry): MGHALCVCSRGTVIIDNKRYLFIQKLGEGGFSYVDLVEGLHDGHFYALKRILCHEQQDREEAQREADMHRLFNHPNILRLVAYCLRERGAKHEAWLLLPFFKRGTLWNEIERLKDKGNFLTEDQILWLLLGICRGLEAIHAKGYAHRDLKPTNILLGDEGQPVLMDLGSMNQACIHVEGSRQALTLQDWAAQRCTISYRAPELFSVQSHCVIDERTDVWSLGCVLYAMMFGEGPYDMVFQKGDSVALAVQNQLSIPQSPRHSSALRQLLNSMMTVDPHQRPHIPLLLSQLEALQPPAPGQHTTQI

Consider `C=CC(=O)Nc1ccc2ncn(-c3cncc(Nc4ccccc4)n3)c2c1`, for which the IC50 in assay [1] came to 20 nM; in [2], 640 nM; in assay [3] it was 300 nM; in [4], 550 nM; in assay [5], 660 nM; in [6] it was 550 nM. The IC50 in assay [7] is 980 nM; in assay [8], 1000 nM.

For `N#C/C(=C\c1cccc(-c2cccc3[nH]ncc23)c1)C(N)=O`, the IC50 in [9] is 2410 nM; in assay [10], greater than 10000 nM; in assay [11], 2050 nM; in assay [12] it was 6930 nM; in assay [13], 1670 nM.

For `C=CC(=O)Nc1nc2cnc3[nH]ccc3c2n1C`, the IC50 in [1] stood at 3 nM; in assay [2], 1250 nM; in [14] it was 3100 nM; in assay [15], 9400 nM; in assay [3], 2 nM; in assay [16] it was 5600 nM. Moreover, the 50% inhibitory concentration (IC50) in assay [17] came out at 7400 nM; in assay [18], 7800 nM; in assay [19], 7100 nM.
